Read-outs that look alike come from different tables or passages of the source.
Legend:
[1] = Liver microsomal metabolic stability, rat; type: in vitro ADME; conditions: 10 μM, 30 min
serum RBP4 = conditions: mice; cited from earlier work
[2] = Liver microsomal metabolic stability, mouse; type: in vitro ADME; conditions: 10 μM, 30 min
[3] = Liver microsomal metabolic stability, human; type: in vitro ADME; conditions: 10 μM, 30 min
RBP4 = RBP4 (Homo sapiens, UniProt P02753); assay: RBP4 scintillation proximity assay; type: binding; conditions: for binding to RBP4 (competition binding): purified human RBP4, 10 nM 3H-retinol radioligand
[4] = lipophilic ligand efficiency: RBP4 SPA pIC50 − cLog P

O=C(O)c1ccccc1NC(=O)N1CCC(c2ccccc2C(F)(F)F)CC1 [Compound 3, reference compound]
Microsomal Stability (% remaining) RLM [1]: 85 % remaining

Cc1cc(C(=O)O)nc(N2C[C@H]3CC(c4ccccc4C(F)(F)F)C[C@H]3C2)n1 (stereo partly shown) [Compound 5]
serum RBP4 lowering (serum RBP4): 90%

Cn1nc(C(=O)N2CCC(c3ccccc3C(F)(F)F)CC2)c2ccccc21 [Compound 12, (1-Methyl-1H-indazol-3-yl)(4-(2-(trifluoromethyl)phenyl)-piperidin-1-yl)methanone]
Microsomal Stability (% remaining) MLM [2]: 0.2 % remaining
Microsomal Stability (% remaining) RLM [1]: 0.0 % remaining
Microsomal Stability (% remaining) HLM [3]: 0.7 % remaining
LLE (RBP4; [4]): 4.56

COc1ccc2[nH]nc(C(=O)N3CCC(c4ccccc4C(F)(F)F)CC3)c2c1 [Compound 17, (5-Methoxy-1H-indazol-3-yl)(4-(2-(trifluoromethyl)phenyl)-piperidin-1-yl)methanone]
LLE (RBP4; [4]): 3.01

CC(C)n1nc(C(=O)N2CCC(c3ccccc3C(F)(F)F)CC2)c2ccc(F)cc21 [Compound 20, (6-Fluoro-1-isopropyl-1H-indazol-3-yl)(4-(2-(trifluoromethyl)-phenyl)piperidin-1-yl)methanone]
LLE (RBP4): 2.03

N#Cc1ccc2nnc(C(=O)N3CCC(c4c(F)cccc4C(F)(F)F)CC3)n2c1 [Compound 64, 3-(4-(2-Fluoro-6-(trifluoromethyl)phenyl)piperidine-1-carbonyl)-[1,2,4]triazolo[4,3-a]pyridine-6-carbonitrile]
LLE (RBP4; [4]): 5.89

CC/C=C\C/C=C\C/C=C\C/C=C\C/C=C\C/C=C\CCC(=O)O [docosahexaenoic acid, reference compound]
binding to RBP4 (competition binding) (RBP4): weak RBP4 ligands

CCCCC/C=C\C/C=C\CCCCCCCC(=O)O [linoleic acid, reference compound]
binding to RBP4 (competition binding) (RBP4): weak RBP4 ligands

CCCCCCCC/C=C\CCCCCCCC(=O)O [oleic acid, reference compound]
binding to RBP4 (competition binding) (RBP4): weak RBP4 ligands

CCCCCCCCCCCCCCCC(=O)O [palmitic acid, reference compound]
binding to RBP4 (competition binding) (RBP4): weak RBP4 ligands

From article PMC6737539 (Journal of medicinal chemistry, 2019)
